Source: patent US20190284136A1, “INDOLINE DERIVATIVES” (ViiV HEALTHCARE UK LIMITED, priority 2016, published 2019)

Tested on: HIV
Assay: Table 1 IC50 of the examples (assay method not given; patent concerns inhibiting HIV replication)
Format: cell-based
Conditions: Human immunodeficiency virus 1

| SMILES | IC50 |
| --- | --- |
| COc1cc(F)cc(C(=O)N2CCc3c2cc(C)c([C@H](OC(C)(C)C)C(=O)O)c3-c2cc(F)c3c(c2C)CCCO3)c1 [Example 158, (S)-2-(tert-Butoxy)-2-((R)-1-(3-fluoro-5-methoxybenzoyl)-4-(8-fluoro-5-methylchroman-6-yl)-6-methylindolin-5-yl) acetic acid] | 0.003 µM |
| COc1ccc(C(=O)n2ccc3c(-c4cc(F)c5c(c4C)CCCO5)c([C@H](OC(C)(C)C)C(=O)O)c(C)cc32)cc1C [Example 202, (S)-2-(tert-Butoxy)-2-((R)-4-(8-Fluoro-5-methylchroman-6-yl)-1-(4-methoxy-3-methylbenzoyl)-6-methyl-1H-indol-5-yl)acetic acid] | 0.093 µM |
| Cc1ccc(-c2c3c(cc(C)c2C(OC(C)(C)C)C(=O)O)N(CC(=O)c2ccccc2)CCC3)cc1 (stereo not shown) [Example 207, 2-(tert-Butoxy)-2-(7-methyl-1-(2-oxo-2-phenylethyl)-5-(p-tolyl)-1,2,3,4-tetrahydroquinolin-6-yl)acetic acid] | 3.5 µM |
| Cc1ccc(-c2c3c(cc(C)c2C(OC(C)(C)C)C(=O)O)N(C(=O)OCc2ccccc2)CCC3)cc1 (stereo not shown) [Example 208, 2-(1-((Benzyloxy)carbonyl)-7-methyl-5-(p-tolyl)-1,2,3,4-tetrahydroquinolin-6-yl)-2-(tert-butoxy)acetic acid] | 1.12 µM |
| COC(=O)c1cccc(CN2CCCc3c2cc(C)c(C(OC(C)(C)C)C(=O)O)c3-c2ccc(C)cc2)c1 (stereo not shown) [Example 209, 2-(tert-Butoxy)-2-(1-(3-(methoxycarbonyl)benzyl)-7-methyl-5-(p-tolyl)-1,2,3,4-tetrahydroquinolin-6-yl)acetic acid] | 1.34 µM |
| CCCNC(=O)N1CCCc2c1cc(C)c(C(OC(C)(C)C)C(=O)O)c2-c1ccc(C)cc1 (stereo not shown) [Example 210, 2-(tert-Butoxy)-2-(7-methyl-1-(propylcarbamoyl)-5-(p-tolyl)-1,2,3,4-tetrahydroquinolin-6-yl)acetic acid] | 4.29 µM |
| Cc1ccc(-c2c3c(cc(C)c2C(OC(C)(C)C)C(=O)O)N(c2ccccc2)CCC3)cc1 (stereo not shown) [Example 211, 2-(tert-Butoxy)-2-(7-methyl-1-phenyl-5-(p-tolyl)-1,2,3,4-tetrahydroquinolin-6-yl)acetic acid] | 10.4 µM |
| Cc1ccc(-c2c3c(cc(C)c2C(OC(C)(C)C)C(=O)O)N(Cc2ccc(F)c(F)c2)CCC3)cc1 (stereo not shown) [Example 212, 2-(tert-Butoxy)-2-(1-(3,4-difluorobenzyl)-7-methyl-5-(p-tolyl)-1,2,3,4-tetrahydroquinolin-6-yl)acetic acid] | 1.03 µM |
| Cc1ccc(-c2c3c(cc(C)c2C(OC(C)(C)C)C(=O)O)N(S(=O)(=O)N2CCCCC2)CCC3)cc1 (stereo not shown) [Example 213, 2-(tert-Butoxy)-2-(7-methyl-1-(piperidin-1-ylsulfonyl)-5-(p-tolyl)-1,2,3,4-tetrahydroquinolin-6-yl)acetic acid] | 3.41 µM |
| Cc1ccc(-c2c3c(cc(C)c2C(OC(C)(C)C)C(=O)O)N(C(=O)c2cccc(F)c2)CCC3)cc1 (stereo not shown) [Example 214, 2-(tert-Butoxy)-2-(1-(3-fluorobenzoyl)-7-methyl-5-(p-tolyl)-1,2,3,4-tetrahydroquinolin-6-yl)acetic acid] | 3.56 µM |
